Reference: US20130309768A1, “METHOD FOR CULTURING HUMAN PLURIPOTENT STEM CELLS” (NATIONAL INSTITUTE OF BIOMEDICAL INNOVATION, priority 2011, published 2013)
No end group written: not given here. *: point of attachment. Myristoyl = CCCCCCCCCCCCCC(=O)*

Columns and labels:
cell line H9 (WA09) = assay: Culture with fibronectin added to the medium, cell appearance; type: cell-based, human; conditions: 0, 20, 40, 80, 160, 320 μg/well tested; 9.6 cm^2 well, 3 mL medium; FIG. 8
Method: (§1) In a 6 well plate (from Becton, Dickinson and Company), first media containing fibronectin were prepared by adding 10 μg/mL recombinant human insulin, 5 μg/mL recombinant human transferrin (apo), 10 μM 2-mercaptoethanol, 10 μM 2-ethanolamine, 20 nM sodium selenite, 9.4 μg/mL oleic acid complexed with 1 mg/mL recombinant human albumin, and 2 ng/mL recombinant human activin to the hESF-grow medium, and further adding 0, 20, 40, 80, 160, or 320 μg/well of bovine fibronectin to each well.
as §1, with “second” for “first”, “adding” for “adding 10 μg/mL recombinant human insulin,”, “selenate and” for “selenite,”, “albumin” for “human albumin, and 2 ng/mL recombinant human activin”
The cell line H9 (WA09) was cultured similarly to the culturing on fibronectin coating described above, except that the first medium and the second medium described in the above section on fibronectin coating were replaced with the first media containing fibronectin and the second media containing fibronectin, and cells were cultured at varying concentrations of fibronectin in respective wells. The area of 1 well in the used plate was 9.6 cm^2, and 3 mL each of the medium was added.

murine ES cells = conditions: serum-free medium; cited from earlier work
[1] = system: human ES cell line KhES-1; assay: Cell adhesion to ECM-coated microplates (crystal violet, absorbance 595 nm); type: cell-based; conditions: coating 0.01-10 μg/cm^2, hESF9 medium, two days culture; FIG. 1(a)
Method: (§2) The inventors studied on the substitution of ECMs such as collagen I, gelatin, laminin, fibronectin, and the like, which are recently used as a cell support in place of feeder cells, from animal-derived materials to animal product-free ingredients. Studies were conducted with human ES cell line KhES-1 (Laboratory of embryonic stem Cell research Center, Institute for Frontier Medical Sciences, Kyoto University), and human iPS cell line Tic (JCRB1331) (JSCB cell bank, National Institute of Biomedical Innovation); and the embryonal cancer cell line PA-1 (JCRB9061) (JSCB cell bank, National institute of Biomedical Innovation) was used as a comparative example.
(§3) Using 96 well microplates (from Corning Incorporated), each of collagen I (from Nitta Gelatin Inc.), gelatin (from Sigma Chemical Co.), laminin (from Sigma Chemical Co.), and fibronectin (from Sigma Chemical Co.) was treated at 37° C. for 3 hours, with avoiding being dried, to coat the microplates with each at 0.01, 0.05, 0.1, 0.5, 1, 5 and 10 μg/cm^2. The aforementioned hESF9 medium was added, and then human ES cell line KhES-1 and human iPS cell line Tic (JCRB1331), and embryonal cancer cell line PA-1 (JCRB9061) were seeded at […], after counting their cell numbers. After culturing the cells for two days (or culturing the embryonal cancer cell line PA-1 (JCRB9061) for one hour), the cells were fixed and nuclei of adhered cells were stained with 0.4% crystal violet (from Sigma Chemical Co.) dissolved in methanol for 30 minutes. The microplates were washed and then dried. The cells were lysed with 0.1 M sodium citrate dissolved in 50% methanol, and absorbance at 595 nm was measured with a microplate reader (model 550, from Bio-Rad Laboratories, Inc.).

[2] = system: human iPS cell line Tic (JCRB1331); assay: as above; type: cell-based; conditions: coating 0.01-10 μg/cm^2, hESF9 medium, two days culture; FIG. 1(b)
Method: as §2, §3

[3] = system: embryonal cancer cell line PA-1 (JCRB9061); assay: Cell adhesion to ECM-coated microplates (comparative example); type: cell-based; conditions: hESF9 medium, one hour culture; FIG. 1(c)
Method: as §2, §3
Embryonal cancer cell line PA-1 (JCRB9061) was studied on the adhesion ability to the various ECNs described above.

pluripotent stem cells = assay: Cytokeratin expression of cells cultured on laminin; type: cell-based, human
human ES cells = conditions: cited from earlier work
[4] = system: ERK (extracellular signal-regulated kinases); conditions: addition of activin; cited from earlier work
[5] = system: human iPS cell line Tic (JCRB1331); assay: Culture with protein kinase C peptide inhibitor, alkaline phosphatase staining; type: cell-based; conditions: fourth day, FIG. 9
Method: Media comprising the activin-containing supplement+hESF-grow medium or the activin-free supplement+hESF-grow medium with fibronectin coating described in Example 3 and 0, 1, 2.5, 5, or 10 μM each of myristoylated protein kinase C peptide inhibitor (Myr. […]) (from Promega Corporation) added thereto were prepared, and used as first media containing a protein kinase C inhibitor and second media containing a protein kinase C inhibitor.
Human iPS cell line Tic (JCRB1331) was dispersed in the first medium containing a protein kinase C inhibitor and culturing was started. 60 hours after starting the culturing of the cell line Tic, a medium change into the second medium containing a protein kinase C inhibitor was conducted. Twice of medium changes were further conducted every 24 hours. On the fourth day after starting the culturing, the cells were fixed with 4.5 mM citric acid, 2.25 mM sodium citrate, 3 mM sodium chloride, 65% methanol and 4% paraformaldehyde for five minutes. Alkaline phosphatase staining was conducted with FastRed substrate kit (from Sigma Chemical Co.) according to the guidance of the manufacturer.

## fibronectin
Cell line H9 (WA09)
  amount of fibronectin at which the undifferentiated state was best maintained: 80 μg/well
Murine ES cells
  effect on undifferentiated state / differentiation: act to promote the differentiation
[1]
  adhesion ability: strongest adhesion ability
[2]
  adhesion ability: strongest adhesion ability

## gelatin
[3]
  adhesion ability: strongest adhesion ability
  coating concentration at which adhesion ability was strongest: about 10 μg/cm^2
[1]
  adhesion ability: weak adhesion ability
[2]
  adhesion ability: weak adhesion ability

## laminin
Murine ES cells
  effect on undifferentiated state / differentiation: act to promote the differentiation
Pluripotent stem cells
  cytokeratin expression: express cytokeratin strongly
[1]
  adhesion ability: strongest adhesion ability
[2]
  adhesion ability: strongest adhesion ability

## heparin
Human ES cells; added in the absence of FGF-2
  proliferation of ES cells: promotes the proliferation

## collagen
[3]
  adhesion ability: strongest adhesion ability
  coating concentration at which adhesion ability was strongest: about 10 μg/cm^2
[1]
  adhesion ability: weak adhesion ability
[2]
  adhesion ability: weak adhesion ability

## O=S(=O)(O)CCN1CCN(CCO)CC1 [HEPES]
Human ES cells; added into serum-free medium
  effect on the maintenance of human ES cells: very adverse effect

## activin
[4]
  ERK activation: activates ERK
Human ES cells; addition of activin
  differentiation induction into the nerve or mesendoderm: promotes differentiation induction

## Myr. RFARKGALRQKNV (Myristoyl-RFARKGALRQKNV)
[5]; 1 to 2.5 μM in medium
  proliferation: increase in proliferation
[5]; 1 to 5 μM in medium
  suppression of differentiation compared to no inhibitor: further suppression of differentiation
